The values that follow come from patent publication US20250066341A1 (CHIESI FARMACEUTICI S.P.A., priority 2021, published 2025).

In this test the target is T1, human recombinant LPA1 expressed in CHO cells (Homo sapiens, UniProt Q92633).
T1 construct: expressed in transfected cells; host or cells: CHO cells (CHO-hLPA1 cell line)
T1 sequence (Q92633 whole entry): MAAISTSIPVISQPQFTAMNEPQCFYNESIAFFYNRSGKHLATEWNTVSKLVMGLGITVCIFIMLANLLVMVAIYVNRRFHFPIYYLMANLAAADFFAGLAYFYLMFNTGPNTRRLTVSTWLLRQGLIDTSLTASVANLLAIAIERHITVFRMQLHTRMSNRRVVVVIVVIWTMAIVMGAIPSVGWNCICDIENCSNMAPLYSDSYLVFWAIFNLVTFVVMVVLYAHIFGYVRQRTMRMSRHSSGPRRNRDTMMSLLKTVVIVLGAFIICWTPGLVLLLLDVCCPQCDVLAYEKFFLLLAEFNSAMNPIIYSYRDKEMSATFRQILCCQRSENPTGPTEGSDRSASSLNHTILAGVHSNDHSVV
The test is described as follows: FLIPR calcium mobilization assay, LPA1 antagonism in CHO-hLPA1 cells. The format is cell-based. Conditions: inhibition of LPA EC80 Ca2+ response, 30 min pre-incubation, expressed as range of activity. Here is the method: The effectiveness of compounds of the present invention as LPA1 antagonist can be determined at the human recombinant LPA1 expressed in CHO cells, using a FLIPR assay in 384 well format.
CHO-hLPA1 cell lines are cultured in a humidified incubator at 5% C02 in DMEM/F-12 (1:1) MIXTURE with 2 mM Glutamax, supplemented with 10% of Foetal Bovine Serum, 1 mM Sodium Pyruvate, 11 mM Hepes and 1× Penicillin/Streptomycin. […] Serial dilutions (1:3 or 1:4, 11 points CRC) of compounds are performed in 100% DMSO at 200× the final concentration. […] The final concentration of DMSO in the assay will be 0.5% in each well. Medium is removed by aspiration and cells are then incubated with 30 μl of a loading solution containing 5 μM of the cytoplasmic Ca2+ indicator Cal-520 AM in Assay Buffer containing 2.5 mM probenecid for 30 min at 37° C. incubator (cell loading). The loaded cell plates are transferred into the FLIPR instrument and calcium responses are monitored during the on-line addition protocols. For testing of compounds, after the cell loading, 10 μl/well of 4× antagonists' solution was added onto the cells. After 30 min pre-incubation (at 37° C.), 10 μl/well of 5× concentrated LPA EC80 was added and Ca2+ mobilization responses was followed during the on-line addition protocol. Intracellular peak fluorescence values subtracted by baseline fluorescence are exported and analysed to determine IC50 values, respectively. The calcium response is expressed as percentage of the maximal inhibition of the EC80 agonist response.
The raw data (peak height expressed as relative fluorescence units) are normalized and transformed into “percent of inhibition”. Curve fitting and pIC50 (−LogIC50) estimations are carried out using a four-parameter logistic model using XLfit Software.
In general terms: A change in cytosolic calcium serves as a functional read-out for many receptors and channels.
A word on the IC50: it is the point on the concentration scale where inhibition reaches its midpoint. For the molecule `CCC[C@@H](C)OC(=O)Nc1c(C)noc1-c1ccc(OC[C@H]2CCCC[C@@H]2C(=O)O)c(C)n1` [Compound 70], the IC50 is under 50 nM.
For the molecule `Cc1nc(-c2onc(C)c2CNc2nccc(-c3ccsc3)n2)ccc1NC(=O)[C@H]1CCCC[C@@H]1C(=O)O` [Compound 39, (1S,2S)-2-((2-methyl-6-(3-methyl-4-(((4-(thiophen-3-yl)pyrimidin-2-yl)amino)methyl)isoxazol-5-yl)pyridin-3-yl)carbamoyl)cyclohexane-1-carboxylic acid], the IC50 is under 50 nM.
For the molecule `Cc1nc(-c2onc(C)c2NS(=O)(=O)CCc2ccccc2)ccc1NC(=O)[C@H]1CCCC[C@@H]1C(=O)O` [Compound 23, (1S,2S)-2-((2-methyl-6-(3-methyl-4-((2-phenylethyl)sulfonamido)isoxazol-5-yl)pyridin-3-yl)carbamoyl)cyclohexane-1-carboxylic acid], the IC50 fell in the range of 50 to 250 nM.
With `Cc1nc(-c2onc(C)c2Nc2cncc(C3CCCC3)n2)ccc1OC[C@H]1CCCC[C@@H]1C(=O)O` [Compound 46, (1S,2S)-2-(((6-(4-((6-cyclopentylpyrazin-2-yl)amino)-3-methylisoxazol-5-yl)-2-methylpyridin-3-yl)oxy)methyl)cyclohexane-1-carboxylic acid] the figure was under 50 nM; with `Cc1nc(-c2onc(C)c2CNc2nccc(-c3cccc4ccccc34)n2)ccc1NC(=O)[C@H]1CCCC[C@@H]1C(=O)O` [Compound 40, (1S,2S)-2-((2-methyl-6-(3-methyl-4-(((4-(naphthalen-1-yl)pyrimidin-2-yl)amino)methyl)isoxazol-5-yl)pyridin-3-yl)carbamoyl)cyclohexane-1-carboxylic acid], under 50 nM; with `Cc1nc(-c2onc(C)c2Nc2cncc(-c3ccccc3)n2)ccc1NC(=O)[C@H]1CCCC[C@@H]1C(=O)O` [Compound 6, (1S,2S)-2-((2-methyl-6-(3-methyl-4-((6-phenylpyrazin-2-yl)amino)isoxazol-5-yl)pyridin-3-yl)carbamoyl)cyclohexane-1-carboxylic acid], under 50 nM.
`Cc1nc(-c2onc(C)c2CNC(=O)O[C@H](C)c2ccccc2)ccc1NC(=O)[C@H]1CCCC[C@@H]1C(=O)O` [Compound 35, (1S,2S)-2-((2-methyl-6-(3-methyl-4-(((((R)-1-phenylethoxy)carbonyl)amino)methyl)isoxazol-5-yl)pyridin-3-yl)carbamoyl)cyclohexane-1-carboxylic acid]: the 50% inhibitory concentration (IC50) lay within 250 to 600 nM.
With `CCOc1cncc(Nc2c(C)noc2-c2ccc(OC[C@H]3CCCC[C@@H]3C(=O)O)c(C)n2)n1` [Compound 51, (1S,2S)-2-(((6-(4-((6-ethoxypyrazin-2-yl)amino)-3-methylisoxazol-5-yl)-2-methylpyridin-3-yl)oxy)methyl)cyclohexane-1-carboxylic acid] the figure was under 50 nM; with `Cc1nc(-c2onc(C)c2Nc2cncc(NC3CCCC3)n2)ccc1NC(=O)[C@H]1CCCC[C@@H]1C(=O)O` [Compound 15, (1S,2S)-2-((6-(4-((6-(cyclopentylamino)pyrazin-2-yl)amino)-3-methylisoxazol-5-yl)-2-methylpyridin-3-yl)carbamoyl)cyclohexane-1-carboxylic acid], 50 to 250 nM.
As to `Cc1nc(-c2onc(C)c2NC(=O)O[C@H](C)c2ccccc2Cl)ccc1OC[C@H]1CCCC[C@@H]1C(=O)O` [Compound 80, (1S,2S)-2-(((6-(4-((((R)-1-(2-chlorophenyl)ethoxy)carbonyl)amino)-3-methylisoxazol-5-yl)-2-methylpyridin-3-yl)oxy)methyl)cyclohexane-1-carboxylic acid], the half-inhibitory concentration (IC50) is under 50 nM.
`Cc1nc(-c2onc(C)c2Nc2cncc(OC(C)C)n2)ccc1OC[C@H]1CCCC[C@@H]1C(=O)O` [Compound 52, (1S,2S)-2-(((6-(4-((6-isopropoxypyrazin-2-yl)amino)-3-methylisoxazol-5-yl)-2-methylpyridin-3-yl)oxy)methyl)cyclohexane-1-carboxylic acid]: the IC50 is under 50 nM.
